Test results published in patent US20090186868A1, “Taxane Compound Having Azetidine Ring Structure” (Daiichi Sankyo Company Limited, priority 2005, published 2009).
In brackets after ≈: the same amount, converted by molar mass. Where two headings read alike, the source gives them in different places.

What was measured:
[1] = tested on: NCI-H460 (human lung cancer cell line); test: Anti-cell activity (MTT) against human tumor cell line NCI-H460; format: cell-based; settings: 72 h, NCI-H460, cultured three days, read-out: NCI-H460 (GI50 value, ng/mL)
Protocol: (§1) Three types of human tumor cell lines (all of the cells were obtained from American Type Culture Collection) were seeded on 96-well microplates as follows.
(§2) NCI-H460 (human lung cancer cell line): 5.0×10^2 cells/190 μL/well HCT-15 (P glycoprotein (P-gp) expressing human colon cancer cell line, J. Natl. Cancer Inst., 2001, 93:1234-1245): 1.0×10^3 cells/190 μL/well HCT116 (human colon cancer cell line): 1.0×10^3 cells/190 μL/well On the next day, each test compound was dissolved in 100% dimethyl sulfoxide (DMSO) at a concentration of 10 mg/mL. This solution was diluted with 0.01% Cremophor EL-PBS(−) (Cremophor EL: Sigma Chemical Co., St. Louis, Mo., USA, PBS: Invitrogen Corp., Carlsbad, Calif., USA), and 10 μL of the diluted solution was added to each well (final concentration: 100 to 0.000381 ng/mL). The cells were cultured for three days, and then […] of a 5 mg/mL solution of 3-(4,5-dimethylthiazol-2-yl)-2,5-diphenyl-2H-tetrazolium bromide (MTT, Sigma Chemical Co.) was added to each well. The cells were further cultured for 4 hours, and then the medium was removed by centrifugation. By adding 150 μL of DMSO to each well, the produced formazan product was dissolved. The absorbance of the solution was measured at 540 nm. The drug concentration suppressing cell proliferation of the drug addition group to 50% of the cell proliferation of the drug free group (GI50 value, ng/mL) was calculated, and used as an index of anti-cell activity.

[2] = tested on: HCT116 (human colon cancer cell line); test: Anti-cell activity (MTT) against human tumor cell line HCT116; format: cell-based; settings: HCT-116, 72 h, HCT116, cultured three days, read-out: HCT116 (GI50 value, ng/mL)
Protocol: as §1, §2

[3] = tested on: B16 melanoma BL6; test: Antitumor effect in mice subcutaneously transplanted with B16 melanoma BL6; format: in vivo, Mice (C57BL/6); settings: MTD/MED
Excerpt: (§3) Mice (C57BL/6, Charles River Japan) were subcutaneously transplanted with B16 melanoma BL6 (Cancer Res., Poste, G., Fidler, I. J. et al., 1980, 40:1636; Bioorg. Med. Chem. Lett., Takeda, Y. et al., 2003, 13:185-190), or M5076 (obtained from Japanese Foundation for Cancer Research), which is a histiocytoma expressing P-gp. Four days after the transplantation in the case of B16 melanoma BL6, or 8 to 10 days after the transplantation in the case of M5076, each test compound suspended in a 0.5% aqueous solution of carboxymethylcellulose sodium, or dissolved in EtOH:Tween 80:5% glucose=5:5:90 (v/v %) was orally (po) or intravenously (iv) administered to the mice. Ten days after the administration in the case of B16 melanoma BL6, or 8 to 10 days after the administration in the case of M5076, the mice were dissected, and tumor weights were measured. The antitumor effect was calculated in accordance with the following equation.
(§4) [1−(Average tumor weight of compound administration group/average tumor weight of solvent administration group)]×100
(§5) An antitumor effect of 58% or more was considered effective (Int. J. Cancer, 1989, 43:637-44), and the maximum tolerance dose (MTD, maximum dose not causing death, mg/kg) and minimum effective dose (MED, mg/kg) showing effectiveness were obtained, respectively. The therapeutic index was calculated in accordance with the equation: MTD/MED.
(§6) ND means that the test was not performed. The effective dose range means the range of from MED to MTD.

[4] = tested on: HCT-15 (P glycoprotein (P-gp) expressing human colon cancer cell line); test: Anti-cell activity (MTT) against human tumor cell line HCT-15; format: cell-based; settings: 72 h, HCT-15 (P-gp expressing), cultured three days, read-out: HCT-15 (GI50 value, ng/mL)
Protocol: as §1, §2

[5] = Solubility in first and second solution for disintegration test (Japanese Pharmacopoeia); format: physicochemical; settings: thermodynamic from solid
Protocol: Solubility of each compound was determined in the first solution for disintegration test according to Japanese Pharmacopoeia (henceforth referred to as the first solution, solution obtained by adding 7 mL of hydrochloric acid and water to 2.00 g of sodium chloride to dissolve sodium chloride and fill up the solution to 1000 mL, pH 1.2) and the second solution for disintegration test according to Japanese Pharmacopoeia (henceforth referred to as the second solution, solution obtained by adding 118 mL of 0.2 mol/L solution of sodium hydroxide to 6.80 g of potassium dihydrogenphosphate, adding water to the mixture to dissolve potassium dihydrogenphosphate and filling up the solution to 1000 mL, pH 6.8).
Each test compound was dissolved in 100% dimethyl sulfoxide (DMSO) at a concentration of 10 mM, and 50 μL of the solution was lyophilized. The lyophilized test compound was added with 250 μL of the first solution or second solution, and the mixture was stored at room temperature for 12 hours or longer under light shielding, and filtered (0.7 μm). The filtrate was taken in a volume of 90 μL, and added with 50% DMSO (90 μL) to obtain a two-fold diluted solubility sample. The two-fold dilution solubility sample was taken in a volume of 20 μL, and added with 50% DMSO (180 μL) to obtain a […] diluted solubility sample. Solubility of each test sample was determined by quantifying the test compound in the resulting diluted solubility test samples using high-performance liquid chromatography.

[6] = tested on: M5076 (histiocytoma expressing P-gp); test: Antitumor effect in mice subcutaneously transplanted with M5076; format: in vivo, Mice (C57BL/6); settings: for Therapeutic index: MTD/MED; for Effective dose range: range from MED to MTD, antitumor effect of 58% or more considered effective
Excerpt: as §3, §4, §5, §6

[7] = aqueous buffer, second solution for disintegration test, pH 6.8, room temperature, 12 hours or longer, read-out: Solubility (μg/mL) pH 6.8
[8] = simulated gastric fluid, first solution for disintegration test, pH 1.2, room temperature, 12 hours or longer, read-out: Solubility (μg/mL) pH 1.2

| Structure (SMILES) | GI50 [1] [ng/mL] | GI50 [2] [ng/mL] | Therapeutic index ([3]; B16 Melanoma BL6, iv) | Therapeutic index ([3]; B16 Melanoma BL6, po) | GI50 [4] [ng/mL] | solubility [5, 7] [µg/mL] | solubility [5, 8] [µg/mL] | Therapeutic index ([6]; M5076, iv) | Effective dose range ([6]; M5076, iv) [mg/kg] | Therapeutic index ([6]; M5076, po) | Effective dose range ([6]; M5076, po) [mg/kg] | solubility ([5]; pH 1.2, simulated gastric fluid) [µg/mL] | solubility ([5]; pH 6.8, aqueous buffer) [µg/mL] |
| --- | --- | --- | --- | --- | --- | --- | --- | --- | --- | --- | --- | --- | --- |
| CC(=O)O[C@@]12CO[C@@H]1CC[C@@]1(C)[C@@H]3O[C@H](CN4CCC4)O[C@@H]3C3=C(C)[C@@H](OC(=O)[C@H](O)[C@@H](NC(=O)OC(C)(C)C)c4ncccc4F)C[C@@](O)([C@@H](OC(=O)c4ccccc4)[C@@H]12)C3(C)C [Example 2, (1S,2S,3R,4S,5R,8R,9S,10R,13S)-4-(Acetoxy)-9,10-[(1S)-2-(azetidino)ethylidenedioxy]-2-(benzoyloxy)-5,20-epoxy-1-hydroxytax-11-en-13-yl (2R,3S)-3-(tert-butoxycarbonylamino)-3-(3-fluoro-2-pyridyl)-2-hydroxypropionate] | 0.606 (≈ 0.000678 µM) | 0.669 (≈ 0.000748 µM) | 2.9 | 2.9 | 2.31 (≈ 0.00258 µM) | 170 (≈ 190 µM) | 1100 (≈ 1230 µM) | 1.0 | 14.7 | 2.0 | 13.7 to 28 |  |  |
| CC(=O)O[C@@]12CO[C@@H]1CC[C@@]1(C)[C@@H]3O[C@H](CN4CC(O)C4)O[C@@H]3C3=C(C)[C@@H](OC(=O)[C@H](O)[C@@H](NC(=O)OC(C)(C)C)c4ccccn4)C[C@@](O)([C@@H](OC(=O)c4ccccc4)[C@@H]12)C3(C)C [Example 5, (1S,2S,3R,4S,5R,8R,9S,10R,13S)-4-(Acetoxy)-2-(benzoyloxy)-5,20-epoxy-1-hydroxy-9,10-[(1S)-2-(3-hydroxyazetidino)ethylidenedioxy]tax-11-en-13-yl (2R,3S)-3-(tert-butoxycarbonylamino)-2-hydroxy-3-(2-pyridyl)propionate] | 0.162 (≈ 0.000182 µM) | 0.229 (≈ 0.000257 µM) |  | 6.0 | 8.08 (≈ 0.00906 µM) | 140 (≈ 157 µM) | 1000 (≈ 1120 µM) |  |  | 1.0 | 30.0 |  |  |
| CC(=O)O[C@@]12CO[C@@H]1CC[C@@]1(C)[C@@H]3O[C@H](CN4CC(O)C4)O[C@@H]3C3=C(C)[C@@H](OC(=O)[C@H](O)[C@@H](NC(=O)OC(C)(C)C)c4ncccc4F)C[C@@](O)([C@@H](OC(=O)c4ccccc4)[C@@H]12)C3(C)C [Example 6, (1S,2S,3R,4S,5R,8R,9S,10R,13S)-4-(Acetoxy)-2-(benzoyloxy)-5,20-epoxy-1-hydroxy-9,10-[(1S)-2-(3-hydroxyazetidino)ethylidenedioxy]tax-11-en-13-yl (2R,3S)-3-(tert-butoxycarbonylamino)-3-(3-fluoro-2-pyridyl)-2-hydroxypropionate] | 0.172 (≈ 0.000189 µM) | 0.183 (≈ 0.000201 µM) |  | 4.2 | 7.94 (≈ 0.00873 µM) |  |  |  |  | 2.0 | 18.6 to 38.0 | 690 (≈ 758 µM) | 87 (≈ 95.6 µM) |
| COC1CN(C[C@@H]2O[C@@H]3C4=C(C)[C@@H](OC(=O)[C@H](O)[C@@H](NC(=O)OC(C)(C)C)c5ncccc5F)C[C@@](O)([C@@H](OC(=O)c5ccccc5)[C@H]5[C@@](C)(CC[C@H]6OC[C@]65OC(C)=O)[C@@H]3O2)C4(C)C)C1 [Example 8, (1S,2S,3R,4S,5R,8R,9S,10R,13S)-4-(Acetoxy)-2-(benzoyloxy)-5,20-epoxy-1-hydroxy-9,10-[(1S)-2-(3-methoxyazetidino)ethylidenedioxy]tax-11-en-13-yl (2R,3S)-3-(tert-butoxycarbonylamino)-3-(3-fluoro-2-pyridyl)-2-hydroxypropionate] | 0.128 (≈ 0.000139 µM) | 0.155 (≈ 0.000168 µM) |  | 2.9 | 0.236 (≈ 0.000255 µM) | 10 (≈ 10.8 µM) | 600 (≈ 649 µM) |  |  | 1.4 | 21.0 to 30.0 |  |  |
